Measured values: patent publication US5827887A, “Biphenyl compounds” (Roussel Uclaf, priority 1995, dated 1998)

Target: T1, human prostate 5-α-reductase (PH6) (Homo sapiens, UniProt P31213)
T1 construct: Homogenates of human prostates were used, obtained by radical prostatectomies; from tissue; host or cells: human prostate (benign hyperplasia, radical prostatectomy), homogenate, 140,000 g pellet
T1 sequence (P31213 1-254): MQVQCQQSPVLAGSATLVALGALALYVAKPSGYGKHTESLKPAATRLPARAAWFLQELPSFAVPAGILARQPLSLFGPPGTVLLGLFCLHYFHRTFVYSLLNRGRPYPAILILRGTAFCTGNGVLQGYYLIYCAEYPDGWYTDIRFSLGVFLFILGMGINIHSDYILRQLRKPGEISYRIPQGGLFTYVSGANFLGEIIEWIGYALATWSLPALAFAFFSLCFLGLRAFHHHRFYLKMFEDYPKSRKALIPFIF
Test: 5-α-reductase activity in vitro, HPLC of 5-α reduced metabolites of tritiated testosterone, homogenates of human prostates (PH6)
Assay type: biochemical
Conditions: human prostate homogenate; testosterone substrate; pH 5.5; 37° C., 30 minutes; read-out: IC50 of inhibition of the 5-α-reductase activity of the human prostate enzyme (PH6)
Method: The test for measuring the 5-α-reductase activity took place in vitro by incubating the enzyme and its substrate (testosterone) and measuring by HPLC chromatography the quantity of 5-α reduced metabolites formed (dihydro-testosterone (DHT) and 5-α-androstane-diol). Homogenates of human prostates were used, obtained by radical prostatectomies due to benign hyperplasia of the prostate (BHP): PH6.
The prostate was collected as soon as it left the operating theater suite and was packed in aluminum foil placed in a container filled with dry ice. In the laboratory, if the homogenate was not prepared immediately, the prostate could be kept at -80° C. The prostate was shredded over ice into very small pieces, which were homogenized in a medium A (20 mM of potassium phosphate, pH 6.5; 0.32M of sucrose; 1 mM of dithiotreitol (DTT); 50 uM NADPH), in a polytron, then in a Potter glass flask. After centrifuging at 140,000 g for 60 minutes at 4° C., the pellets obtained were suspended in 10 to 20 ml of medium B ([…] of potassium phosphate, pH 6.5; 20% of glycerol; 1 mM of dithiothreitol). The medium was distributed in Nunc tubes kept at -80° C. Determination of the proteins was carried out on a small amount of homogenate for its future use in the test and it was therefore assured of having at least 10 mg of proteins/ml of homogenate.
Incubation was carried out at a pH of 5.5 at the rate of 1 ml of medium/tube in the presence of citrate (normal medium and pH of the prostate).
1) Preparation of the substrate (S) which was the mixture of "unlabelled" testosterone and "tritiated" testosterone with an isotopic dilution of 100 in a trisodium citrate buffer pH 5.0
a) 40 mM of trisodium citrate buffer: 11.76 g of 3 Na-citrate, 2H2 O (Merk ref. Art 6448) were weighed and dissolved in 1 liter of distilled water (Milli-Q) and the solution was adjusted to pH of 5.0.
b) mixture of "unlabelled" testosterone and "tritiated testosterone with an isotopic dilution of 100: To obtain a solution of testosterone of 1 mM, 2.88 mg of "unlabelled" testosterone were weighed and dissolved in 10 ml of ethanol. This solution was diluted to 0.99/1000, that is 9.9 μl in 10 ml of citrate buffer (=10^-6 M solution). 9 μl of ^3 H-testosterone (NET-370) were added to 10 ml of the preceding solution (=isotopic dilution of 100). The substrate (S) was ready.
2) Preparation of enzyme+DTT+NADPH mixture
a) Potassium phosphate buffer, 40 mM, pH 6.5:
5.44 g de KH2 PO4 (Riedel de Haen ref. 30407) was weighed and dissolved in 1 liter of distilled water (Milli-Q) and the solution was adjusted to a pH of 6.5.
3.1 mg of DTT were weighed and dissolved in 1 ml of phosphate buffer.
8.33 mg of NADPH were weighed and dissolved in 1 ml of phosphate buffer.
d) enzyme+DTT+NADPH mixture (E):
For one test, 0.5 mg of proteins of prostate homogenate, 50 μl of DTT and 50 μl of NADPH were mixed together at 4° C. and the mixture was made up to 500 μl with the phosphate buffer.
3) Incubation (5α-reduction)
One tube was prepared for each test and 500 μl of (S) and 10 μl of inhibitor at the desired concentration (or ethanol for the controls) are put in each tube. The tubes containing mixture (S) and the flask containing mixture (E) were pre-incubated in a water bath for 3 to 5 minutes.
To start the reaction, 500 μl of E were transferred rapidly into each tube containing S+the inhibitor and the mixture was incubated at 37° C. with gentle stirring for 30 minutes. […]

| Structure (SMILES) | IC50 [nM] |
| --- | --- |
| CC(C)N(C(=O)COc1c(F)cc(-c2ccc(C(=O)O)cc2)cc1[N+](=O)[O-])C(C)C [Example 4, 4'-[2-[bis-(isopropyl)-amino]-2-oxoethoxy]-3'-fluoro-5'-nitro-(1,1'-biphenyl)-4-carboxylic acid] | 9.6 |
| CCc1cc(-c2ccc(C(=O)O)cc2)ccc1OCC(=O)N(C(C)C)C(C)C [Example 12, 4'-[2-[bis-(isopropyl)-amino)-2-oxoethoxy]-3'-ethyl-(1,1'-biphenyl)-4-carboxylic acid] | 2000 |
| O=C(COc1c(F)cc(-c2ccc(C(=O)O)cc2)cc1[N+](=O)[O-])NC(c1ccccc1)(c1ccccc1)c1ccccc1 [Example 6, 3'-fluoro-5'-nitro-4'-[2-oxo-2-[(tribenzyl)-amino]-ethoxy]-(1,1'-biphenyl)-4-carboxylic acid] | 36 |
| CCc1cc(OCC(=O)N(C(C)C)C(C)C)ccc1-c1ccc(C(=O)O)cc1 [Example 11, 4'-(2-[bis-(isopropyl)-amino)-2-oxoethoxy]-2'-ethyl-(1,1'-biphenyl)-4-carboxylic acid] | 77 |
| O=C(COc1ccc(-c2ccc(C(=O)O)cc2)cc1)NC(c1ccccc1)(c1ccccc1)c1ccccc1 [Example 5, 4'-[2-oxo-2-([tribenzyl)-amino]-ethoxy]-(1,1'-biphenyl) -4-carboxylic acid] | 92 |
